What was measured:
[1] = system: recombinant human anti-SARS-CoV antibody 03-018; assay type: binding; parameters: Binding of antibody 03-018 to linear peptides of the N protein of SARS-CoV Urbani / Binding of antibody 03-018 to looped/cyclic peptides of the N protein of SARS-CoV Urbani: unit not given here
[2] = system: antibodies in sera from SARS patients (sera 1a, 1b, 2, 6, 37, 62, London, SARS-yellow, SARS-green); assay type: binding, human; parameters: Binding of serum 6 to linear peptides of protein X1 of SARS-CoV Urbani / Binding of serum 37 to linear peptides of protein X1 of SARS-CoV Urbani / Binding of serum 6 to looped/cyclic peptide (PEPSCAN-ELISA) / Binding of serum 37 to looped/cyclic peptide (PEPSCAN-ELISA) / Binding of serum 37 to looped/cyclic peptides of protein X1 of SARS-CoV Urbani / Binding of serum 6 to linear peptides of protein X2 / Binding of serum 37 to linear peptides of protein X2 / Binding of serum 37 to looped/cyclic peptides of protein X2 of SARS-CoV Urbani / Binding of serum 6 to linear peptides of protein M of SARS-CoV Urbani / Binding of serum 37 to linear peptides of protein M of SARS-CoV Urbani / Binding of serum 6 to looped/cyclic peptides of protein M of SARS-CoV Urbani / Binding of serum 37 to looped/cyclic peptides of protein M of SARS-CoV Urbani / Binding of serum 6 to linear peptides of protein X3 of SARS-CoV Urbani / Binding of serum 37 to linear peptides of protein X3 of SARS-CoV Urbani / Binding of serum 37 to looped/cyclic peptides of protein X3 of SARS-CoV Urbani / Binding of serum 6 to linear peptides of protein X4 of SARS-CoV Urbani / Binding of serum 37 to linear peptides of protein X4 of SARS-CoV Urbani / Binding of serum 37 to looped/cyclic peptides of protein X4 of SARS-CoV Urbani / Binding of serum 6 to linear peptides of protein X5 of SARS-CoV Urbani / Binding of serum 37 to linear peptides of protein X5 of SARS-CoV Urbani / Binding of serum 37 to looped/cyclic peptides of protein X5 of SARS-CoV Urbani / Binding of serum 6 to linear peptides of protein N of SARS-CoV Urbani / Binding of serum 37 to linear peptides of protein N of SARS-CoV Urbani / Binding of serum 6 to linear peptide (PEPSCAN-ELISA) / Binding of serum 1a to looped/cyclic peptides of protein N of SARS-CoV Urbani / Binding of serum 1b to looped/cyclic peptides of protein N of SARS-CoV Urbani / Binding of serum 2 to looped/cyclic peptides of protein N of SARS-CoV Urbani / Binding of serum 6 to looped/cyclic peptides of protein N of SARS-CoV Urbani / Binding of serum 37 to looped/cyclic peptides of protein N of SARS-CoV Urbani / Binding of serum 62 to looped/cyclic peptides of protein N of SARS-CoV Urbani / Binding of serum London to looped/cyclic peptides of protein N of SARS-CoV Urbani / Binding of serum SARS-green to looped/cyclic peptides of protein N of SARS-CoV Urbani: unit not given here
[3] = system: control sera (pooled serum of ten healthy LUMC hospital workers; commercial negative donor pooled serum from the Dutch bloodbank); assay type: binding, human; parameters: Binding of Control serum LUMC to linear peptides / Binding of Control serum Blood-bank to linear peptides / Binding of Control serum LUMC to looped peptides / Binding of Control Serum Blood-Bank to Looped peptides / Binding of Control serum LUMC to linear peptides of the protein M of SARS-CoV Urbani / Binding of Control serum Blood-bank to linear peptides of the protein M of SARS-CoV Urbani / Binding of Control serum LUMC to looped peptides of the protein M of SARS-CoV Urbani / Binding of Control Serum Blood-Bank to Looped peptides of the protein M of SARS-CoV Urbani: unit not given here
[4] = system: rabbit serum obtained by immunizing a rabbit with the SARS-CoV strain Frankfurt 1; assay type: binding; parameters: Binding of a rabbit serum to linear peptides / Binding of a rabbit serum to looped peptides / Rabbit serum linear peptides / Rabbit serum looped peptides / Binding of a rabbit serum to linear peptides of protein N of SARS-CoV Urbani (Rabbit serum linear peptides) / Binding of a rabbit serum to looped/cyclic peptides of protein N of SARS-CoV Urbani (Rabbit serum looped peptides): unit not given here

| Sequence | Binding of antibody 03-018 to linear peptides of the N protein of SARS-CoV Urbani [1] | Binding of antibody 03-018 to looped/cyclic peptides of the N protein of SARS-CoV Urbani [1] | Binding of serum 1a to linear peptides of protein N of SARS-CoV Urbani [2] | Binding of serum 1a to looped/cyclic peptides of protein N of SARS-CoV Urbani [2] | Binding of serum 1b to linear peptides of protein N of SARS-CoV Urbani [2] | Binding of serum 1b to looped/cyclic peptides of protein N of SARS-CoV Urbani [2] | Binding of serum 2 to linear peptides of protein N of SARS-CoV Urbani [2] | Binding of serum 2 to looped/cyclic peptides of protein N of SARS-CoV Urbani [2] | Binding of serum 6 to linear peptides of protein N of SARS-CoV Urbani [2] | Binding of serum 6 to looped/cyclic peptides of protein N of SARS-CoV Urbani [2] | Binding of serum 37 to linear peptides of protein N of SARS-CoV Urbani [2] | Binding of serum 37 to looped/cyclic peptides of protein N of SARS-CoV Urbani [2] | Binding of serum 62 to linear peptides of protein N of SARS-CoV Urbani [2] | Binding of serum 62 to looped/cyclic peptides of protein N of SARS-CoV Urbani [2] | Binding of serum London to linear peptides of protein N of SARS-CoV Urbani [2] | Binding of serum London to looped/cyclic peptides of protein N of SARS-CoV Urbani [2] | Binding of serum SARS-green to linear peptides of protein N of SARS-CoV Urbani [2] | Binding of serum SARS-green to looped/cyclic peptides of protein N of SARS-CoV Urbani [2] | Binding of serum SARS-yellow to linear peptides of protein N of SARS-CoV Urbani [2] | Binding of serum SARS-yellow to looped/cyclic peptides of protein N of SARS-CoV Urbani [2] | further results |
| --- | --- | --- | --- | --- | --- | --- | --- | --- | --- | --- | --- | --- | --- | --- | --- | --- | --- | --- | --- | --- | --- |
| HWPQIAQFAPSASAF | 0.1 | 0.2 | 0.3 | 0.5 | 0.2 | 0.3 | 0.2 | 0.5 | 0.2 | 0.4 | 0.8 | 0.8 | 0.7 | 1.0 | 0.6 | 0.6 | 0.4 | 0.6 | 0.8 | 0.6 | Control Serum Blood-Bank Looped peptides [3]: 0.8; Control serum Blood-bank linear peptides [3]: 0.8; Control serum LUMC linear peptides [3]: 0.7; Control serum LUMC looped peptides [3]: 0.8; Binding of a rabbit serum to linear peptides of protein N of SARS-CoV Urbani (Rabbit serum linear peptides) [4]: 0.1; Binding of a rabbit serum to looped/cyclic peptides of protein N of SARS-CoV Urbani (Rabbit serum looped peptides) [4]: 0.7 |
| NPNNNAATVLQLPQG | 0.1 | 0.3 | 0.4 | 0.4 | 0.2 | 0.4 | 0.4 | 0.5 | 0.3 | 0.3 | 0.8 | 0.9 | 0.9 | 0.9 | 0.8 | 0.5 | 0.6 | 0.7 | 0.8 | 0.5 | Binding of Control Serum Blood-Bank to Looped peptides [3]: 0.8; Binding of Control serum Blood-bank to linear peptides [3]: 0.9; Binding of Control serum LUMC to linear peptides [3]: 0.9; Binding of Control serum LUMC to looped peptides [3]: 0.9; Binding of a rabbit serum to linear peptides of protein N of SARS-CoV Urbani (Rabbit serum linear peptides) [4]: 0.1; Binding of a rabbit serum to looped/cyclic peptides of protein N of SARS-CoV Urbani (Rabbit serum looped peptides) [4]: 0.3 |
| VATEGALNTPKDHIG | 0.2 | 0.2 | 0.3 | 0.3 | 0.1 | 0.2 | 0.2 | 0.3 | 0.2 | 0.2 | 0.7 | 0.4 | 1.1 | 0.3 | 0.7 | 0.3 | 0.5 | 0.2 | 0.6 | 0.2 | Binding of Control Serum Blood-Bank to Looped peptides [3]: 0.5; Binding of Control serum Blood-bank to linear peptides [3]: 0.9; Binding of Control serum LUMC to linear peptides [3]: 0.9; Binding of Control serum LUMC to looped peptides [3]: 0.5; Binding of a rabbit serum to linear peptides of protein N of SARS-CoV Urbani (Rabbit serum linear peptides) [4]: 0.2; Binding of a rabbit serum to looped/cyclic peptides of protein N of SARS-CoV Urbani (Rabbit serum looped peptides) [4]: 0.0 |
| IAQFAPSASAFFGMS | 0.1 | 0.3 | 0.2 | 0.4 | 0.1 | 0.2 | 0.1 | 0.4 | 0.1 | 0.3 | 0.6 | 0.7 | 0.5 | 0.6 | 0.4 | 0.4 | 0.2 | 0.4 | 0.6 | 0.4 | Control Serum Blood-Bank Looped peptides [3]: 0.8; Control serum Blood-bank linear peptides [3]: 0.7; Control serum LUMC linear peptides [3]: 0.6; Control serum LUMC looped peptides [3]: 0.6; Binding of a rabbit serum to linear peptides of protein N of SARS-CoV Urbani (Rabbit serum linear peptides) [4]: 0.2; Binding of a rabbit serum to looped/cyclic peptides of protein N of SARS-CoV Urbani (Rabbit serum looped peptides) [4]: 0.4 |
